How the values were obtained:
[1] = biological target: T1, CYP2C8 (Homo sapiens, UniProt P10632); test: in vitro; details: recombinant CYP2C8, probe paclitaxel
T1 sequence (P10632 whole entry): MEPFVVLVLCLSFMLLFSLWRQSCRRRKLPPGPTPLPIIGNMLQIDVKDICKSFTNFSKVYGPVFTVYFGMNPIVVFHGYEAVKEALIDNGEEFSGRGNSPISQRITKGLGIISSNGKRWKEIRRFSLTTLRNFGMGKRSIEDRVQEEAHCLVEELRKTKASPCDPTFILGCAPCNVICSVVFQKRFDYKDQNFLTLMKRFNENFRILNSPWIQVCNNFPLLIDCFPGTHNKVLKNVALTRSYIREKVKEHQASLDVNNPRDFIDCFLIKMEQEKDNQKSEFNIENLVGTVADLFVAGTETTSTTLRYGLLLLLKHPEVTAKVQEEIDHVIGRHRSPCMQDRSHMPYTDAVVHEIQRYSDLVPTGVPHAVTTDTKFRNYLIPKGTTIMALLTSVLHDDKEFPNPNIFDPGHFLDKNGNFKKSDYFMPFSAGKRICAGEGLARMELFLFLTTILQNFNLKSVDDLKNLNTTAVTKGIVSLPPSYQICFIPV
Description: (§6) Mechanism based inhibition of human cytochrome P450 2C8 measured by paclitaxel hydroxylation using a recombinant system

[2] = biological target: T2, Cytochrome P450 2C8 (Homo sapiens, UniProt P10632)
T2 sequence (P10632 whole entry): T1 sequence (P10632 whole entry)
Description: as §6

[3] = biological target: T1, CYP2C8; test: in vitro; details: human liver microsomes, probe paclitaxel
Description: (§7) Mechanism based inhibition of human cytochrome P450 2C8 measured by paclitaxel hydroxylation using human liver microsomes

[4] = biological target: T2, Cytochrome P450 2C8; remark: listed apart in the source
Description: as §7

[5] = biological target: T3, Cytochrome P450 2D6 (Homo sapiens, UniProt P10635); test: (§1) Mechanism based inhibition of human cytochrome P450 2D6 measured by dextromethorphan O-demethylation
[6] = biological target: T4, CYP2D6 (Homo sapiens, UniProt P10635); test: as §1; details: human, probe dextromethorphan
[7] = biological target: T5, Cytochrome P450 2C9 (Homo sapiens, UniProt P11712); test: Mechanism based inhibition of human cytochrome P450 2C9; assay type: ADME
[8] = biological target: T6, Cytochrome P450 2C19 (Homo sapiens, UniProt P33261); test: Mechanism based inhibition of human cytochrome P450 2C19; assay type: ADME
[9] = biological target: T7, Cytochrome P450 2B6 (Homo sapiens, UniProt P20813); test: Mechanism based inhibition of human cytochrome P450 2B6; assay type: ADME
T7 sequence (P20813 whole entry): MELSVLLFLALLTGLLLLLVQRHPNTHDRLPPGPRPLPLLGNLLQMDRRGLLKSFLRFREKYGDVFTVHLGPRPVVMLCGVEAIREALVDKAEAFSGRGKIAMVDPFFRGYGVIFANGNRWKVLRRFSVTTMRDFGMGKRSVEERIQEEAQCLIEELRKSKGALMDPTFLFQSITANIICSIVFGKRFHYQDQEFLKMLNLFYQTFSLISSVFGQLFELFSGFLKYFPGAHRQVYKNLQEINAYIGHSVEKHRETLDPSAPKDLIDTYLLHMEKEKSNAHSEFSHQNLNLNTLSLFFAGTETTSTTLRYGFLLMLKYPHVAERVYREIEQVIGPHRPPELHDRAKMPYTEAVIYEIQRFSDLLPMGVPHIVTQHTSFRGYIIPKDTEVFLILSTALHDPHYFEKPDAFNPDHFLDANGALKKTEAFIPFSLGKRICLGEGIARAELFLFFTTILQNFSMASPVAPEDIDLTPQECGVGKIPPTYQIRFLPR

[10] = biological target: T8, Cytochrome P450 3A4 (Homo sapiens, UniProt P08684); test: Mechanism based inhibition of human cytochrome P450 3A4 measured by midazolam 1'-hydroxylation; assay type: ADME
[11] = biological target: T7, Cytochrome P450 2B6; test: Mechanism based inhibition of human cytochrome P450 2B6 measured by 7-EFC O-deethylation; assay type: ADME
[12] = biological target: T9, CYP2B6 (Homo sapiens, UniProt P20813); test: (§2) Mechanism based inhibition of human cytochrome P450 2B6 measured by N-(3,5-dichloro-4-pyridyl)-3- (cyclopentoxy)-4- methoxybenzamide (DCMB) hydroxylase activity; assay type: ADME; details: human
T9 sequence (P20813 whole entry): T7 sequence (P20813 whole entry)

[13] = biological target: T7, Cytochrome P450 2B6; test: as §2; assay type: ADME
[14] = biological target: T8, Cytochrome P450 3A4; test: (§3) Mechanism based inhibition of human cytochrome P450 3A4 measured by DBF fluorescence; assay type: ADME
[15] = biological target: CYP3A4 (Homo sapiens, UniProt P08684); test: as §3; assay type: ADME; details: human, probe DBF
[16] = biological target: T8, Cytochrome P450 3A4; test: Mechanism based inhibition of human cytochrome P450 3A4, partition ratio; assay type: ADME
[17] = biological target: T5, Cytochrome P450 2C9; test: Mechanism based inhibition of human cytochrome P450 2C9 measured by 7-EFC O-deethylation; assay type: ADME
[18] = biological target: T3, Cytochrome P450 2D6; test: (§4) Mechanism based inhibition of human cytochrome P450 2D6 measured by dextromethorphan O-demethylation using recombinant CYP2D6; assay type: ADME
[19] = biological target: T4, CYP2D6; test: as §4; assay type: ADME; details: human, recombinant CYP2D6, probe dextromethorphan
[20] = biological target: T3, Cytochrome P450 2D6; test: (§5) Mechanism based inhibition of human cytochrome P450 2D6 measured by dextromethorphan O-demethylation using human liver microsomes; assay type: ADME, Microsome
[21] = biological target: T4, CYP2D6; test: as §5; assay type: ADME, Microsome; details: human, human liver microsomes, probe dextromethorphan
[22] = biological target: T6, Cytochrome P450 2C19; test: Mechanism based inhibition of human cytochrome P450 2C19 evaluated using Tolbutamide; assay type: ADME
[23] = biological target: T2, Cytochrome P450 2C8; test: Mechanism based inhibition of human cytochrome P450 2C8 using human liver microsomes; assay type: ADME, Microsome
[24] = biological target: T10, Cytochrome P450 2A6 (Homo sapiens, UniProt P11509); test: Mechanism based inhibition of human cytochrome P450 2A6 measured by coumarin 7-hydroxylation; assay type: ADME
T10 sequence (P11509 whole entry): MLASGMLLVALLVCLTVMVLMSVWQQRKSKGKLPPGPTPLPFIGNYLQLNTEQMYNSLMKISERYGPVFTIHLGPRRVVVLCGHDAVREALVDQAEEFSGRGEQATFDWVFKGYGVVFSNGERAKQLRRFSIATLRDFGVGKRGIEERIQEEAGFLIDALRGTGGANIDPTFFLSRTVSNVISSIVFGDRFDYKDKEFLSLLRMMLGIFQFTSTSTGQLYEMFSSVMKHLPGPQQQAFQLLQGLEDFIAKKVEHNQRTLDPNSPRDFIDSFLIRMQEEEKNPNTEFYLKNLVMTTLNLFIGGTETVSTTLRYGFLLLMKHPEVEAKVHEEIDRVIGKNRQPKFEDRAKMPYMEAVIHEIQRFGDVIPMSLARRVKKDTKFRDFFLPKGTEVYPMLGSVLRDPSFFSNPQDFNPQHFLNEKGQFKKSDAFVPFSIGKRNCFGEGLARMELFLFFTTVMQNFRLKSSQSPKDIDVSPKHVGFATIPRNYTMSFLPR

[25] = biological target: T11, Cytochrome P450 1A2 (Homo sapiens, UniProt P05177); test: Mechanism based inhibition of human cytochrome P450 1A2 measured by phenacetin O-deethylation (POD); assay type: ADME
T11 sequence (P05177 whole entry): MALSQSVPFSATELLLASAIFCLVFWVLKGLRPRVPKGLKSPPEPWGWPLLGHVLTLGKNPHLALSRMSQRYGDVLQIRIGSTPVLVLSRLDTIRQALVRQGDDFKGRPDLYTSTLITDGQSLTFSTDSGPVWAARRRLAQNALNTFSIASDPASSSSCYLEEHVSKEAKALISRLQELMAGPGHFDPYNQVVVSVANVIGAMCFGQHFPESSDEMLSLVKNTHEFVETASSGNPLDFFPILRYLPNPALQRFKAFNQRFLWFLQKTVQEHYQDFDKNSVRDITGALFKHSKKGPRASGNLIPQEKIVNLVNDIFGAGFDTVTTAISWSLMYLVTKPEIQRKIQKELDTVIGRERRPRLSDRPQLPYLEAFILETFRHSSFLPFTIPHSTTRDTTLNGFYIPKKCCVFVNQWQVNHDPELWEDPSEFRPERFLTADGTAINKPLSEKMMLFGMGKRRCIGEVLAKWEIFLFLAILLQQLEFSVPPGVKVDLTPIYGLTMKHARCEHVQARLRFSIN

T8 sequence (P08684 whole entry): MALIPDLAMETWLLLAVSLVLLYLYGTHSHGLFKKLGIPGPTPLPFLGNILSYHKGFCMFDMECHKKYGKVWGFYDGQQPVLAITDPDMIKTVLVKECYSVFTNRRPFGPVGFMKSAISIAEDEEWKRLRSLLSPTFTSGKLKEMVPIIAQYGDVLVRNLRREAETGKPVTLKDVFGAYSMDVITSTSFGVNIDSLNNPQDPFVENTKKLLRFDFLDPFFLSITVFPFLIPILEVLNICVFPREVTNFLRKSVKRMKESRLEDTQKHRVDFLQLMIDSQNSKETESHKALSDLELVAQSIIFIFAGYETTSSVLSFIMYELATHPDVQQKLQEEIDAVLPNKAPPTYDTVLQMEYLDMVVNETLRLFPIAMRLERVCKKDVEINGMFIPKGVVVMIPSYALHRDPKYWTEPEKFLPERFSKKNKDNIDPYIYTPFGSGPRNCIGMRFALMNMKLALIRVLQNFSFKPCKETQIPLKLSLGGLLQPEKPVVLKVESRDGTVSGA
T3 sequence (P10635 whole entry): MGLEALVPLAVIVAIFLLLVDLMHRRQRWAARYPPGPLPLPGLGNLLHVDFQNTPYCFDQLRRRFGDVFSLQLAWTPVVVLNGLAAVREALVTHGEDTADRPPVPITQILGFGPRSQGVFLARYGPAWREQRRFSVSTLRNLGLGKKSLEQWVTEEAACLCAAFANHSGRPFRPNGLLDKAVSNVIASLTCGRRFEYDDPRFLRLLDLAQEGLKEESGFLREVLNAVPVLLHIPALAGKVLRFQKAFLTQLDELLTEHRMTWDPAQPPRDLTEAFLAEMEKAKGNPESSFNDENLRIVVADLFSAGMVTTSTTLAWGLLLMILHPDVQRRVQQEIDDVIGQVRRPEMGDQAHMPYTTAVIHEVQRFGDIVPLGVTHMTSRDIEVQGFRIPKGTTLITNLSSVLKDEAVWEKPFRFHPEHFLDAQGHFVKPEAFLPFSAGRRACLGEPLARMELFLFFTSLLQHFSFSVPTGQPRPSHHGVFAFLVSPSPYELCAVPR
T4 sequence (P10635 whole entry): as above
T5 sequence (P11712 whole entry): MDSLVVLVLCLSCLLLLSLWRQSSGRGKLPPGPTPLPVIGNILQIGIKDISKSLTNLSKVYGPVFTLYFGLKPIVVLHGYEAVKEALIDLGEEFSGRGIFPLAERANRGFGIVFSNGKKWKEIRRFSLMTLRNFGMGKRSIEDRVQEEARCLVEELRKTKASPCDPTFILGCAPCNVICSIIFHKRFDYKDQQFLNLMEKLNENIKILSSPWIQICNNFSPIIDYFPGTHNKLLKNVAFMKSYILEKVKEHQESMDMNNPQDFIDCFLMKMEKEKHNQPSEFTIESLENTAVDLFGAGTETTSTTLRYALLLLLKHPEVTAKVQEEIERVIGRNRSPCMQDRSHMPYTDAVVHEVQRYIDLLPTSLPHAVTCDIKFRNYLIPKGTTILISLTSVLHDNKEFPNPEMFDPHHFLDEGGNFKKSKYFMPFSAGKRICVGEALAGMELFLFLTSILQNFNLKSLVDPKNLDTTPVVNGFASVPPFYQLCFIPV
T6 sequence (P33261 whole entry): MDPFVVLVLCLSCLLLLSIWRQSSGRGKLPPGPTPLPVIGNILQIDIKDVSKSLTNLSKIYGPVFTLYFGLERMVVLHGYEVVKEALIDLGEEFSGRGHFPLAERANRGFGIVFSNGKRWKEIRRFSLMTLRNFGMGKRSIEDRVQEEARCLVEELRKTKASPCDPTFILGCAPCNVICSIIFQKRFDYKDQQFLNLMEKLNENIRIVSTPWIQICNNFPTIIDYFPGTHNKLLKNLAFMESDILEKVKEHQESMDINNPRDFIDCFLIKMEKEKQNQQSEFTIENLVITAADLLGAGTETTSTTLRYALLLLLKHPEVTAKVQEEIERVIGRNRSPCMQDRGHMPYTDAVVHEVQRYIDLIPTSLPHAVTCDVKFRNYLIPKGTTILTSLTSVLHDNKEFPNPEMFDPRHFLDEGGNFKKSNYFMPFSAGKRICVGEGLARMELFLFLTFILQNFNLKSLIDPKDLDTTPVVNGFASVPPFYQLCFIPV
Sequence of CYP3A4 (P08684 whole entry): as the sequence (P08684 whole entry) above

CCCCc1oc2ccccc2c1C(=O)c1cc(I)c(OCCN(CC)CC)c(I)c1 [AMIODARONE] was tested, and the kinact [1] was 0.00132 s⁻¹, the Ki [2] was 1.5 µM and the kinact [3] was 0.000483 s⁻¹. The Ki [4] was 51.2 µM.
Work on CN/C(=N/CCSCc1nc[nH]c1C)NC#N [CIMETIDINE] yielded a Ki [5] of 77 µM and a kinact [6] of 0.0005 s⁻¹.
Cn1cc[nH]c1=S [METHIMAZOLE] was tested, and the mechanism based inhibition [7] was “Cytochrome P450 mechanistic inhibitor: PMID 9172960”, the mechanism based inhibition [8] was “Cytochrome P450 mechanistic inhibitor: PMID 9172960” and the mechanism based inhibition [9] was “Cytochrome P450 mechanistic inhibitor: PMID 9172960”.
CC/C(=C(\c1ccccc1)c1ccc(OCCN(C)C)cc1)c1ccccc1 [TAMOXIFEN] was tested, and the mechanism based inhibition [10] was “Cytochrome P450 mechanistic inhibitor” and the Ki [11] was 0.9 µM.
Work on C#CCOc1cc(C(=O)Nc2c(Cl)cncc2Cl)ccc1OC yielded a kinact [12] of 0.0015 s⁻¹ and a Ki [13] of 5.1 µM.
Work on CC(O)CCC(=O)c1ccoc1 (stereo unspecified) yielded a Ki [14] of 20 µM, a kinact [15] of 0.0025 s⁻¹ and a Partition ratio [16] of 257.
COc1cc(C2Oc3cc([C@H]4Oc5cc(O)cc(O)c5C(=O)[C@@H]4O)ccc3OC2CO)ccc1O (stereo partly specified) [SILIBININ] was tested, and the Ki [17] was 5 µM.
In the case of CNC(C)Cc1ccc2c(c1)OCO2 (stereo unspecified) [MIDOMAFETAMINE], the Ki [18] is reported as 12.9 µM, the kinact [19] is reported as 0.00483 s⁻¹ and the Ki [20] is reported as 22.8 µM. For the same compound, the kinact [21] was 0.00283 s⁻¹.
Work on NNC(=O)c1ccncc1 [ISONIAZID] yielded a Ki [22] of 10 µM, a Ki [23] of 170 µM and a Ki [24] of 60 µM. It also gave a Ki [25] of 56 µM and a Ki [2] of 374 µM.

Reference: ChEMBL document CHEMBL1743341, “Cytochrome p450 enzymes mechanism based inhibitors: common sub-structures and reactivity” (Curr Drug Metab, 2005)
